In BindingDB's records for doi:10.1016/j.bmc.2004.08.050 (Yamanouchi Pharmaceutical, 2004):

How the values were obtained:
Test in all cases: HIV-1 RT Assay
[1] = target: T1, Gag-Pol polyprotein [588-1027,K690N]/[588-1147,K690N] (Human immunodeficiency virus 1, UniProt P04585, K690N)
T1 construct: 588-1027; 588-1147

[2] = target: T2, Gag-Pol polyprotein [588-1127,Y768C]/[588-1147,Y768C] (Human immunodeficiency virus 1, UniProt P04585, Y768C)
T2 construct: 588-1127; 588-1147

[3] = target: T3, Gag-Pol polyprotein [588-1027]/[588-1147] (Human immunodeficiency virus 1, UniProt P04585)
T3 construct: 588-1027; 588-1147

SMILES | IC50 [1] [µM] | IC50 [2] [µM] | IC50 [3] [µM] | IC50 ([1]; pH 8.4, 37 °C) [µM] | IC50 ([2]; pH 8.4, 37 °C) [µM] | IC50 ([3]; pH 8.4, 37 °C) [µM]
CCn1c(C)c(C(C)(C)C)s/c1=N\S(=O)(=O)c1cccc([N+](=O)[O-])c1 [N-[(2Z)-5-tert-butyl-3-ethyl-4-methyl-2,3-dihydro-1,3-thiazol-2-ylidene]-3-nitrobenzene-1-sulfonamide] | > 50 | 0.12 | 6 |  |  | 
Cc1[nH]/c(=N/S(=O)(=O)c2cccc([N+](=O)[O-])c2)sc1C(C)(C)C [N-(5-tert-Butyl-4-methyl-1,3-thiazol-2-yl)-3-nitrobenzenesulfonamide] |  |  |  | 32 | 0.47 | 0.37
COC(=O)c1c(C(C)C)s/c(=N\S(=O)(=O)c2cccc([N+](=O)[O-])c2)n1C [Methyl 5-isopropyl-3-methyl-2-{[(3-nitrophenyl)-sulfonyl]imino}-2,3-dihydro-1,3-thiazole-4-carboxylate] | > 50 | > 25 | > 50 |  |  | 
Cc1c(C(C)C)s/c(=N\S(=O)(=O)c2cccc([N+](=O)[O-])c2)n1C [N-(3,4-Dimethyl-5-isopropyl-1,3-thiazol-2(3H)-ylidene)-3-nitrobenzenesulfonamide] |  |  |  | 20 | 0.071 | 0.34
Cc1cs/c(=N\S(=O)(=O)c2cccc([N+](=O)[O-])c2)n1C [N-[(2Z)-3,4-dimethyl-2,3-dihydro-1,3-thiazol-2-ylidene]-3-nitrobenzene-1-sulfonamide] |  |  |  | > 50 | > 50 | > 50
CC(C)c1cn(C)/c(=N/S(=O)(=O)c2cccc([N+](=O)[O-])c2)s1 [N-[(2Z)-3-methyl-5-(propan-2-yl)-2,3-dihydro-1,3-thiazol-2-ylidene]-3-nitrobenzene-1-sulfonamide] | > 50 | 0.7 | 0.6 |  |  | 
CC(C)c1s/c(=N\S(=O)(=O)c2cccc([N+](=O)[O-])c2)n(C)c1C#N [N-(4-Cyano-5-isopropyl-3-methyl-1,3-thiazol-2(3H)-ylidene)-3-nitrobenzenesulfonamide] | > 50 | 0.64 | 0.62 |  |  | 
Cc1s/c(=N\S(=O)(=O)c2cccc([N+](=O)[O-])c2)n(C)c1C [3-nitro-N-[(2Z)-3,4,5-trimethyl-2,3-dihydro-1,3-thiazol-2-ylidene]benzene-1-sulfonamide] |  |  |  | > 50 | 33 | 0.97
CC(C)Cc1c(C(C)C)s/c(=N\S(=O)(=O)c2cccc([N+](=O)[O-])c2)n1C [N-(4-Isobutyl-5-isopropyl-3-methyl-1,3-thiazol-2(3H)-ylidene)-3-nitrobenzenesulfonamide] | > 50 | > 25 | > 50 |  |  | 
CC(=O)c1sc(=NS(=O)(=O)c2cccc([N+](=O)[O-])c2)n(C)c1C [N-[(2Z)-5-acetyl-3,4-dimethyl-2,3-dihydro-1,3-thiazol-2-ylidene]-3-nitrobenzene-1-sulfonamide] | > 50 | > 50 | > 50 |  |  | 
CC(C)c1s/c(=N\S(=O)(=O)c2cccc([N+](=O)[O-])c2)n(C)c1Cl [thiazolidenebenzenesulfonamide deriv. 17k] | 6.9 | 0.13 | 0.077 |  |  | 
CC(C)c1s/c(=N\S(=O)(=O)c2cccc([N+](=O)[O-])c2)n(C)c1C(F)(F)F [N-[(2Z)-3-methyl-5-(propan-2-yl)-4-(trifluoromethyl)-2,3-dihydro-1,3-thiazol-2-ylidene]-3-nitrobenzene-1-sulfonamide] | 42 | 0.26 | 0.6 |  |  | 
Cc1c(C(C)(C)C)s/c(=N\S(=O)(=O)c2cccc([N+](=O)[O-])c2)n1C [3-substituted thiazolidene deriv. 17a] |  |  |  | 13 | 0.066 | 0.27
C=Cc1s/c(=N\S(=O)(=O)c2cccc([N+](=O)[O-])c2)n(C)c1C [N-(3,4-Dimethyl-5-vinyl-1,3-thiazol-2(3H)-ylidene)-3-nitrobenzenesulfonamide] | 6.2 | 9.6 | 0.15 |  |  | 
CC(C)c1s/c(=N\S(=O)(=O)c2cccc([N+](=O)[O-])c2)n(C)c1C(N)=O [5-Isopropyl-3-methyl-2-{[(3-nitrophenyl)sulfonyl]imino}-2,3-dihydro-1,3-thiazole-4-carboxamide] | > 50 | > 25 | 39 |  |  | 
CCc1s/c(=N\S(=O)(=O)c2cccc([N+](=O)[O-])c2)n(C)c1C [N-[(2Z)-5-ethyl-3,4-dimethyl-2,3-dihydro-1,3-thiazol-2-ylidene]-3-nitrobenzene-1-sulfonamide] |  |  |  | 6.3 | 0.47 | 0.85
